Measured values taken from US10052320B2, “Substituted quinoxalines as FGFR kinase inhibitors” (ASTEX THERAPEUTICS LIMITED, priority 2011, dated 2018).
Where two headings read alike, the source gives them in different places.

Assays:
Type in all cases: cell-based
[1] = molecular target: Ba/F3-FGFR1-transfected cells (Homo sapiens, UniProt P11362); test: Ba/F3-FGFR1 (minus IL3) cellular proliferation assay, Alamar Blue; conditions: for BAF3-FGFR 1 (MIN IL3) 384 well pIC50: minus IL3, 384 well; for BAF3-FGFR 1 (MIN IL3) 96 well pIC50: minus IL3, 96 well
Procedure: Ba/F3-FGFR1 (Minus IL3 or Plus IL3) (Cellular Proliferation Assay)
Cells were put in an incubator at 37° C. and 5% CO2. After 24 hours, 10 μl of Alamar Blue solution (0.5 mM K3Fe(CN)6, 0.5 mM KaFe(CN)6, 0.15 mM Resazurin and 100 mM Phosphate Buffer) was added to the wells, incubated for 4 hours at 37° C. and 5% CO2 before RFU's (Relative Fluorescence Units) (ex. 540 nm., em. 590 nm.) were measured in a flurorescence plate reader. […]
(§1) In a 96 well plate, 180 μl cell culture medium (phenol red free RPMI-1640, 10% FBS, 2 mM L-Glutamine and 50 μg/ml Gentamycin) containing 10000 cells per well of Ba/F3-FGFR1-transfected cells were pipette and 20 μl of compound dilution in DMSO was added. Cells were put in an incubator at 37° C. and 5% CO2. After 24 hours, 40 μl of Alamar Blue solution (0.5 mM K3Fe(CN)6, 0.5 mM KaFe(CN)6, 0.15 mM Resazurin and 100 mM Phosphate Buffer) was added to the wells, incubated for 4 hours at 37° C. and 5% CO2 before RFU's (Relative Fluorescence Units) (ex. 540 nm., em. 590 nm.) were measured in a flurorescence plate reader.

[2] = test system: Ba/F3-Flt3-transfected cells in the presence of 10 ng/ml murine IL3; test: Ba/F3-Flt3 (plus IL3) cellular proliferation counterscreen, Alamar Blue; conditions: Mus musculus, read-out: BAF3-FLT3 (PLUS IL3) 96 well pIC50 (converted)
[3] = test system: Ba/F3-KDR-transfected cells in the presence of 10 ng/ml murine IL3; test: Ba/F3-KDR (plus IL3) cellular proliferation counterscreen, Alamar Blue; conditions: Mus musculus
Procedure: Ba/F3-KDR (Minus IL3 or Plus IL3) (Cellular Proliferation Assay)
[…] Cells were put in an incubator at 37° C. and 5% CO2. After 24 hours, 10 μl of Alamar Blue solution (0.5 mM K3Fe(CN)6, 0.5 mM KaFe(CN)6, 0.15 mM Resazurin and 100 mM Phosphate Buffer) was added to the wells, incubated for 4 hours at 37° C. and 5% CO2 before RFU's (Relative Fluorescence Units) (ex. 540 nm., em. 590 nm.) were measured in a flurorescence plate reader.
As a counterscreen the same experiment was performed in the presence of 10 ng/ml murine IL3.
as §1, with “Ba/F3-KDR-transfected” for “Ba/F3-FGFR1-transfected”, “CO2” for “CO2 before”

[4] = plus 10 ng/ml murine IL3, read-out: BAF3-KDR (PLUS IL3) 384 well pIC50 (converted)

Ba/F3-FGFR1-transfected cells, sequence (P11362 whole entry, change not shown): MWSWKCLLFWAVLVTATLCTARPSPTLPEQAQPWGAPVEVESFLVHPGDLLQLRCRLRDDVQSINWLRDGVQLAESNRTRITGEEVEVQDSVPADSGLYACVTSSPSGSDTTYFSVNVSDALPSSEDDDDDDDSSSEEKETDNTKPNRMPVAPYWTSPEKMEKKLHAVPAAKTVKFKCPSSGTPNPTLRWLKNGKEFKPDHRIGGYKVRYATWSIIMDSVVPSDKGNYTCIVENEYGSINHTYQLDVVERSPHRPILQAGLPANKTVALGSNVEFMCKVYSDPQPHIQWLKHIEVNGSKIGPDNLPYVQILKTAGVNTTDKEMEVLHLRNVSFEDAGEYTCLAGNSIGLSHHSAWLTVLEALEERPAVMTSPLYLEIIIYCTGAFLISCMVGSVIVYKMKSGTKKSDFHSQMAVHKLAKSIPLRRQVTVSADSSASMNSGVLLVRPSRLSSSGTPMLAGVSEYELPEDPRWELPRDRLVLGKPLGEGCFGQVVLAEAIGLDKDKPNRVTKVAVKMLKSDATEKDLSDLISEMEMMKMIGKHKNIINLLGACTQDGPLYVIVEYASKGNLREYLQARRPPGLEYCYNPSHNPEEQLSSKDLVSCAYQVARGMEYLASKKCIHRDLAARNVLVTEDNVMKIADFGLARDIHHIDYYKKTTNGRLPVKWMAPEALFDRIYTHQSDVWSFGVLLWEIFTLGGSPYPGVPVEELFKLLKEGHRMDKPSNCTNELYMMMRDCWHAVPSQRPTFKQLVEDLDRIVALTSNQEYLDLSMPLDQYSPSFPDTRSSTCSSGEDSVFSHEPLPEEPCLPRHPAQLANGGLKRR

BAF3-FGFR 1 (MIN IL3) 384 well pIC50 [1]	BAF3-FGFR 1 (MIN IL3) 96 well pIC50 [1]	Compound	IC50 ([2]; plus IL3, 96 well)	IC50 ([2]; plus 10 ng/ml murine IL3)	IC50 [3, 4]	IC50 ([3]; read-out: BAF3-KDR (PLUS IL3) 384 well pIC50, plus IL3, 384 well, read-out: BAF3-KDR (PLUS IL3) 284 well pIC50 (converted))
<5	–	COc1cc(OC)cc(N(CC2CC2)c2ccc3ncc(C#Cc4cncn4C)nc3c2)c1 [Compound 22]	> 10 µM	–	–	–
<5	<5	COc1cc(OC)cc(N(CC2CC2)c2ccc3ncc(C(=O)Nc4cncn4C)nc3c2)c1 [Compound 27]	–	> 10 µM	–	–
<5	–	COc1cc(OC)cc(N(CC2CC2)c2ccc3ncc(NC(=O)c4ccc(F)cc4)nc3c2)c1 [Compound 28]	–	> 10 µM	> 10 µM	–
5.16	5.4	COc1cc(OC)cc(N(CC2CC2)c2ccc3ncc(-c4ccnc(N5CCN(C)CC5)c4)nc3c2)c1 [Compound 37]	~4.68 µM	–	–	–
<5	–	COc1cc(OC)cc(N(CC2CC2)c2ccc3ncc(-c4c[nH]cn4)nc3c2)c1 [Compound 39]	–	> 10 µM	> 10 µM	–
<5	–	COc1cc(OC)cc(N(CC2CC2)c2ccc3ncc(N4CCN(CCO)CC4)nc3c2)c1 [Compound 49]	–	> 10 µM	–	–
<5	–	COc1cc(OC)cc(N(CC2CC2)c2ccc3ncc(N4CCOCC4)nc3c2)c1 [Compound 63]	> 10 µM	–	–	> 10 µM
<5	–	COc1cc(OC)cc(N(CC2CC2)c2ccc3ncc(N4CCN(C)CC4)nc3c2)c1 [Compound 64]	> 10 µM	–	–	–
<5	–	COc1cc(OC)cc(N(CC2CC2)c2ccc3ncc(-c4nnc(C)o4)nc3c2)c1 [Compound 85]	> 10 µM	–	–	–
<5	–	COc1cc(OC)cc(N(CC2CC2)c2ccc3ncc(-c4ccc5[nH]ccc5c4)nc3c2)c1 [Compound 86]	> 10 µM	–	–	–
<5	–	COc1cc(OC)cc(N(CC2CC2)c2ccc3ncc(-c4cnc5[nH]ccc5c4)nc3c2)c1 [Compound 88]	> 10 µM	–	–	–
–	5.06	COc1cc(OC)cc(N(CC2CC2)c2ccc3ncc(-c4ccnc(N5CCOCC5)c4)nc3c2)c1 [Compound 90]	> 10 µM	–	–	–
<5	<5	COc1cc(OC)cc(N(CC2CC2)c2ccc3ncc(-c4cccc(N5CCOCC5)c4)nc3c2)c1 [Compound 92]	–	> 10 µM	–	–
<5	<5	COc1cc(OC)cc(N(CC2CC2)c2ccc3ncc(C(=O)N4CCC4)nc3c2)c1 [Compound 93]	–	> 10 µM	–	–
<5	–	COc1cc(OC)cc(N(CC2CC2)c2ccc3ncc(-n4cccn4)nc3c2)c1 [Compound 95]	–	> 10 µM	–	–
7.04	–	COc1cc(OC)cc(N(CCNC(C)C)c2ccc3ncc(-c4ccc(N5CCOCC5)nc4)nc3c2)c1 [Compound 168]	–	–	7.08 µM	–

BAF3-FGFR 1 (MIN IL3) 384 well pIC50 [1]	BAF3-FGFR 1 (MIN IL3) 96 well pIC50 [1]	Compound	IC50 ([2]; plus IL3, 96 well)	IC50 ([2]; plus 10 ng/ml murine IL3)	IC50 [3, 4]	IC50 ([3]; read-out: BAF3-KDR (PLUS IL3) 384 well pIC50, plus IL3, 384 well, read-out: BAF3-KDR (PLUS IL3) 284 well pIC50 (converted))
6.37	–	COc1cc(OC)cc(N(CCN2CCOCC2)c2ccc3ncc(-c4ccc(N)nc4)nc3c2)c1 [Compound 169]	–	–	> 10 µM	–
6.04	–	COc1cc(OC)cc(N(CCNC(C)C)c2ccc3ncc(-c4ccc(N5CCN(C)CC5)nc4)nc3c2)c1 [Compound 170]	–	–	> 10 µM	–
<5	–	COc1cc(OC)cc(N(CCO)c2ccc3ncc(/C(C)=N/OC(C)(C)C)nc3c2)c1 [Compound 171]	–	–	> 10 µM	–
6.6	–	COC(=O)C1CCCN1c1cnc2ccc(N(CCO)c3cc(OC)cc(OC)c3)cc2n1 (centres unmarked) [Compound 172]	–	–	> 10 µM	–
5.68	–	COc1cc(OC)cc(N(CCO)c2ccc3ncc(C4=CCN(C(=O)OC(C)(C)C)C4)nc3c2)c1 [Compound 173]	–	–	> 10 µM	–
6.07	–	COc1cc(OC)cc(N(CCO)c2ccc3ncc(C4=CCN(C(=O)OC(C)(C)C)CC4)nc3c2)c1 [Compound 178]	–	–	> 10 µM	–
5.62	–	COc1cc(OC)cc(N(CCNC(C)C)c2ccc3ncc(C(=O)N4CCN(C)CC4)nc3c2)c1 [Compound 179]	–	–	> 10 µM	–
5.51	–	COc1cc(OC)cc(N(CCNC(C)C)c2ccc3ncc(C(=O)N4CCCCC4)nc3c2)c1 [Compound 180]	–	–	> 10 µM	–
5.44	–	COc1cc(OC)cc(N(CCNC(C)C)c2ccc3ncc(C(=O)N4CCOCC4)nc3c2)c1 [Compound 181]	–	–	> 10 µM	–
5.89	–	COc1cc(OC)cc(N(CCNC(C)C)c2ccc3ncc(C(=O)NCCCN4CCCCC4)nc3c2)c1 [Compound 182]	–	–	> 10 µM	–
6.76	–	COc1cc(OC)cc(N(CC#Cc2ncccc2OC)c2ccc3ncc(-c4cccnc4)nc3c2)c1 [Compound 183]	–	–	> 10 µM	–
5.28	–	COc1cc(OC)cc(N(CCO)c2ccc3ncc(C(=O)Nc4cnn(C)c4)nc3c2)c1 [Compound 184]	–	–	> 10 µM	–
<5	–	COc1cc(OC)cc(N(CCO)c2ccc3ncc(C4CCN(C(=O)OC(C)(C)C)CC4)nc3c2)c1 [Compound 185]	–	–	> 10 µM	–
5.98	–	COc1cc(OC)cc(N(CCCO)c2ccc3ncc(-c4ccnc(C(=O)NCCOCCO)c4)nc3c2)c1 [Compound 186]	–	–	> 10 µM	–
6.46	–	COc1cc(OC)cc(N(CCNC(C)C)c2ccc3ncc(-c4ccnn4C4CCCCO4)nc3c2)c1 (centres unmarked) [Compound 188]	–	–	> 10 µM	–
7.29	–	COc1cc(OC)cc(N(CCNC(C)C)c2ccc3ncc(-c4ccn[nH]4)nc3c2)c1 [Compound 189]	–	–	> 10 µM	–
